Paper PMC6050476, “Pre-clinical Pharmacokinetic and Metabolomic Analyses of Isorhapontigenin, a Dietary Resveratrol Derivative” (Frontiers in Pharmacology, 2018)

Assays:
[1] = system: plasma metabolites; test: Plasma metabolomic profiling after 1-week isorhapontigenin intervention (GC–MS/MS); assay type: in vivo, Sprague-Dawley rats; details: 1-week daily oral ISO 100 μmol/kg vs vehicle, rat plasma
Experimental: Twenty-two rats were divided into four groups. Group 1 (n = 5) received a single bolus intravenous injection of ISO at the dose of 90 μmol/kg (23.2 mg/kg). Serial blood samples were collected before dosing and at 5, 15, 30, 60, 90, 120, 180, 240, 300, 420, 540, and 720 min after intravenous injection. Group 2 (n = 5) received a single oral administration of ISO at the dose of 200 μmol/kg (51.6 mg/kg). Serial blood samples were collected before dosing and at 15, 30, 45, 60, 90, 120, 180, 240, 300, 420, 540, and 720 min after oral gavage. Group 3 (n = 5) received daily oral pre-treatment of oral dosing vehicle (2 mL/kg) while Group 4 (n = 7) received daily oral pre-treatment of ISO at the dose of 100 μmol/kg (25.8 mg/kg) for 1 week. On day 7, ∼8–10 h after the last pre-treatment dose, surgery was performed on rats in Groups 3 and 4 for jugular vein cannulation, and blood samples were also collected from Groups 3 and 4 for metabolomic study. On day 8, the pharmacokinetic study was carried out on these two groups of animals at the dose of 100 μmol/kg (25.8 mg/kg) using the same blood sampling schedule as Group 2.
The plasma samples collected from rats receiving 1-week daily oral dosing of ISO at 100 μmol/kg (25.8 mg/kg) were subjected to metabolomic study using the rats receiving vehicle as control.
Plasma samples (30 μL aliquots in Eppendorf tubes) were thawed to room temperature (25°C). Myristic-d27 acid (20 μL of 200 μg/mL solution in methanol, IS) and 200 μL of methanol were added to each sample. Samples were vortexed for 5 min at room temperature and centrifuged for 10 min at 15,000 g (4°C). The top 200 μL of each supernatant was transferred to a glass centrifuge tube and dried under nitrogen gas. The dried samples were re-suspended in 100 μL of toluene, vortexed vigorously for 10 s, and dried again under nitrogen. A two-step derivatization method was used for chemical derivatization of the metabolites. Samples were first incubated with 50 μL of 2% methoxy-amine chloride in pyridine for 1.5 h at 60°C. Next, 50 μL of […] was added and the samples were incubated again for 1 h at 60°C. A total of 80 μL of derivatized samples were transferred to glass vials for GC–MS/MS analysis ([Chen et al., 2016a]). Pooled rat plasma from different plasma samples was used as QC and distilled water as blank samples. Two pooled plasma samples were injected before the first study sample and three pooled plasma samples were injected after every six study samples which serve as QC. The blank samples were injected at the beginning, at the middle, and at the end of the sample batch ([Phua et al., 2015]; [Chen et al., 2016a]).
GC–MS/MS analysis was performed using a Shimadzu TQ8040 gas chromatography-triple quadrupole mass spectrometer (Shimadzu Corporation, Japan). The GC injector port was set at 250°C and injection volume was 1 μL with a spilt ratio of 1:10. Chromatographic separation was achieved by a capillary column (BPX-5, 30 m × 0.25 mm × 0.25 μm, SGE Analytical Science, Australia) through constant helium carrier gas flow at 1.14 mL/min. The oven temperature was first held at 60°C for 2 min, followed by increasing temperature ramp of 15°C/min to 330°C, and then held at 330°C for 3 min. The interface and ion source were set at 280 and 200°C, respectively. The mass spectrometer was operated in the MRM mode.
The Shimadzu Smart Metabolites Database (Shimadzu Corporation, Japan) which contains a panel of 475 different endogenous metabolites was applied to identify the metabolites in rat plasma samples in this widely targeted metabolomics analysis. This database contains the retention indices and two MRM transitions of each of the 475 endogenous metabolites which facilitate simple, fast, and reliable metabolite identification and semi-quantification. This strategy has been successfully applied to many studies ([Hashimoto et al., 2017]; [Nishiumi et al., 2017]; [Tomonaga et al., 2018]). […]

[2] = Stock solution stability of isorhapontigenin; assay type: physicochemical; details: 24 °C, 10 days; stock solution in DMSO
Experimental: (§1) Stock solutions of ISO were prepared by dissolution in DMSO and they were stored at room temperature. The stock solutions were further diluted using blank rat plasma to prepare the calibration standards and QC samples. The stock solution of IS was dissolved in acetonitrile to a concentration of 10 μg/mL. 100 μL IS solution was aliquoted into 1.5-mL polypropylene tubes for storage at −80°C. During sample preparation, this solution was further diluted to the working concentration of 10 ng/mL using acetonitrile containing 0.18 μM of disodium EDTA and stored at 4°C.
(§2) The dilution integrity was confirmed using a dilution factor of 20. In the presence of L-ascorbic acid (0.8 mg/mL), ISO appeared to stable in plasma; similarly, addition of EDTA in IS acetonitrile solution (0.18 μM) enhanced the post-preparative stability. The details in accuracy, precision, stability, and matrix effect can be found in Supplementary Tables S1–S3.

[3] = Stability of isorhapontigenin in rat plasma QC samples under different storage conditions; assay type: in vitro ADME, Sprague-Dawley rat; details: for Freeze thaw stability (% remaining): 3 cycles; for Post preparative stability (% remaining): 4 °C, 6 h; for Long term stability (% remaining): -80 °C, 14 days; for Short term stability (% remaining): on ice, 3 h
Experimental: as §1
The calibration range was 1–1000 ng/mL. A simple protein precipitation procedure was used for sample cleanup prior to LC–MS/MS analysis ([Chen et al., 2015], [2016b]). Three volumes of 10 ng/mL IS working solution (^13C isotopically labeled resveratrol in acetonitrile–0.18 μM disodium EDTA) were added to one volume of plasma sample spiked with of L-ascorbic acid at a final concentration of 0.8 mg/mL. After vigorous vortex, centrifugation of samples was performed at 15,000 g for 10 min at 4°C. Subsequently, the clear supernatants were transferred into HPLC vials. During each LC–MS/MS analysis, 1 μL of supernatant was injected into the system.
as §2

Stock solution stability (% remaining) [2]: 96.7 ± 3.0 % remaining | Freeze thaw stability (% remaining) ([3]; QC 2 ng/ml in rat plasma): 98.4 ± 7.6 % remaining | Freeze thaw stability (% remaining) ([3]; QC 400 ng/ml in rat plasma): 94.0 ± 2.4 % remaining | Freeze thaw stability (% remaining) ([3]; QC 800 ng/ml in rat plasma): 92.3 ± 1.2 % remaining | Post preparative stability (% remaining) ([3]; QC 2 ng/ml): 108.0 ± 6.1 % remaining | Post preparative stability (% remaining) ([3]; QC 400 ng/ml): 108.0 ± 1.0 % remaining | Post preparative stability (% remaining) ([3]; QC 800 ng/ml): 108.0 ± 4.1 % remaining | Long term stability (% remaining) ([3]; QC 2 ng/ml in rat plasma): 87.9 ± 2.5 % remaining | Long term stability (% remaining) ([3]; QC 400 ng/ml in rat plasma): 101.0 ± 3.0 % remaining | Long term stability (% remaining) ([3]; QC 800 ng/ml in rat plasma): 97.0 ± 6.5 % remaining | Short term stability (% remaining) ([3]; QC 2 ng/ml in rat plasma): 104.0 ± 6.0 % remaining | Short term stability (% remaining) ([3]; QC 400 ng/ml in rat plasma): 102.0 ± 5.4 % remaining | Short term stability (% remaining) ([3]; QC 800 ng/ml in rat plasma): 98.7 ± 6.4 % remaining
SMILES: COc1cc(/C=C/c2cc(O)cc(O)c2)ccc1O [isorhapontigenin, trans-3,5,4′-trihydroxy-3′-methoxystilbene]
Fold change of plasma 2-Aminoisobutyric acid [1]: 1.351 | Fold change of plasma 4-Hydroxyproline [1]: 0.564 | Fold change of plasma Acetylglycine [1]: 0.508 | Fold change of plasma Allantoin [1]: 0.545 | Fold change of plasma Arachidonic acid [1]: 0.789 | Fold change of plasma Aspartic acid [1]: 0.475 | Fold change of plasma Cadaverine [1]: 0.54 | Fold change of plasma Catechol [1]: 1.411 | Fold change of plasma Cholesterol [1]: 0.789 | Fold change of plasma Eicosapentaenoic acid [1]: 0.762 | Fold change of plasma Fructose [1]: 0.608 | Fold change of plasma Glycerol 2-phosphate [1]: 0.73 | Fold change of plasma Glycyl-glycine [1]: 0.648 | Fold change of plasma Linoleic acid [1]: 0.82 | Fold change of plasma N-Acetyl-ornithine [1]: 0.474 | Fold change of plasma N-Acetylglutamine [1]: 0.804 | Fold change of plasma Psicose [1]: 0.709 | Fold change of plasma Sorbose [1]: 0.698 | Fold change of plasma Tagatose [1]: 0.705 | Fold change of plasma Thymine [1]: 1.198 | Fold change of plasma Tryptamine [1]: 1.469 | effect on plasma glucose levels ([1]; no food restriction): did not change glucose levels
